From patent publication US20170027973A1, “MODULARION OF INVARIANT NATURAL KILLER T CELLS IN THE TREATMENT OF SEPSIS” (LONDON HEALTH SCIENCES CENTRE RESEARCH INC., priority 2014, published 2017)

How the values were obtained:
[1] = system: surface TCR of iNKT cells; details: after 24 hours; cited from earlier work
iNKT cells = assay: Flow cytometric detection of iNKT and T cells in spleen and liver of septic B6 mice; format: in vivo, mouse; details: 24 hours
Procedure: FIG. 10: Effect of glycolipid agonists on cytokine expression in naïve B6 mice, and on iNKT cells in septic B6 mice. (a) Naïve B6 mice were injected i.p. with 4 μg OCH or KRN7000 or C20:2, and bled at 2, 12, and 24 hours post-injection. Serum samples were assayed for IL-4 and IFN-γ by enzyme-linked immunosorbent assay (ELISA). […] Vehicle-treated mice had cytokine levels below limits of detection. (b) B6 mice were given an intraperitoneal injection of fecal slurry (500 μL of a 90 mg/mL solution) to induce IAS and concomitantly treated with 4 μg of vehicle, OCH, or KRN7000. After 24 hours, mice were sacrificed, and cell suspensions from the liver and spleen were stained for the flow cytometric detection of CD1d tetramer+ TCRβ+iNKT cells.
To obtain hepatic lymphoid mononuclear cells (MNCs), mice were euthanized, and livers were flushed with sterile PBS before they were harvested and pressed through a 40-μm nylon mesh. The resulting homogenate was washed in cold PBS, resuspended in a 33.75% Percoll PLUS solution (GE Healthcare Bio-Sciences) and spun at 700×g for 12 min at room temperature. The pelleted cells were then treated with ACK lysis buffer to remove erythrocytes and washed in cold PBS prior to staining. To obtain omental lymphoid MNCs, the spleen, pancreas, and omentum were removed en-bloc and suspended in ice-cold PBS. The omenta floated above the spleen-pancreas complex and were removed and processed similar to the liver. Spleens were processed with a tissue homogenizer, and the resulting homogenate was washed in cold PBS. The pelleted cells were treated with ACK lysis buffer for 4 minutes to remove erythrocytes, and washed in cold PBS prior to staining.
Mouse hepatic, splenic, and omental cells (1×106), and human PBMCs (1×106) were washed with cold FACS buffer [PBS+2% fetal bovine serum (FBS)+0.1% sodium azide] and incubated with 5 μg/ml anti-mouse CD16/CD32 mAb (clone 2•4G2, Fc-block, eBiosciences) for 20 min on ice before staining with fluorescent monoclonal antibodies (mAbs) diluted in FACS buffer at 4° C. for 30-40 min. […]

[2] = system: bacterial counts in blood and multiple organs; assay: Microbial growth (CFU) from tissue homogenates and peripheral blood of septic mice; format: in vivo, mouse; details: septic B6 mice; compared between vehicle, OCH and KRN7000 treatments
Procedure: Whole hearts, lungs (left and right), kidneys (left and right), spleen, and liver were removed from euthanized mice and homogenized in 5 mL of PBS. Homogenates were serially diluted 1:10 in PBS and plated on bovine heart infusion (BHI) agar. Plates were grown aerobically at 37° C. overnight to determine tissue colony-forming units (CFU). Intra-cardiac blood (10 μL) was collected in a heparinized syringe from the right ventricle, serially diluted 1:10 with PBS, and plated on BHIagar to determine blood CFU.

splenocyte apoptosis = assay: Histology (H&E) and TUNEL staining of spleen, liver and omentum of septic B6 mice; format: in vivo, mouse; details: for liver histopathology: among vehicle-, OCH- and KRN-treated mice; for lymphocytes in the omentum: histology; for histopathological scoring of degree of apoptosis in spleen: vehicle-treated: moderate
From the text: FIG. 6: Histopathology of septic B6 mice treated with glycolipid agonists of iNKT cells. […] Lymphocyte migration to the omentum is also ameliorated in OCH-treated mice compared to vehicle- and KRN7000-treated mice. There were no histopathological differences in the liver. Images are representative of 4 animals per treatment group (size bar, 50 μm). (b) Histopathological scoring of the degree of apoptosis observed within the spleens of sham and septic B6 mice treated with vehicle, KRN7000, or OCH (n=4 animals per treatment group). Apoptosis was defined histologically by the presence of cell clusters with nuclear shrinkage (karyorrhexis), dark eosinophilic cytoplasm, intact plasma membrane, and relative paucity of surrounding inflammatory cells within the splenic follicles on H&E staining. Scores assigned to each animal by a blinded independent pathologist were as follows: 0 for complete absence of apoptosis; 1 for mild presence of apoptosis (0-15% per follicle); 2 for moderate apoptosis (16-30% per follicle); and 3 for severe apoptosis (31-45% per follicle). ***p<0.0001 by two-tailed Mann Whitney U test.
Liver, spleen, and omentum from sham B6 mice, and vehicle-, OCH-, and KRN7000-treated septic B6 mice were fixed in 10% neutral buffered formalin, embedded in paraffin, sectioned, and stained with H&E or subjected to TUNEL staining using a commercially available kit (Calbiochem). At least four stained sections per spleen from four animals per treatment group were examined and scored for apoptosis by a board-certified veterinary pathologist (Welch) who was blinded to the study design. Apoptosis was defined histologically by the presence of cell clusters with nuclear shrinkage (karyorrhexis), dark eosinophilic cytoplasm, intact plasma membrane, and relative paucity of surrounding inflammatory cells within the splenic follicles on H&E staining (34). Scores assigned to each animal were as follows: 0 for complete absence of apoptosis; 1 for mild presence of apoptosis (0-15% per follicle); 2 for moderate apoptosis (16-30% per follicle); and 3 for severe apoptosis (31-45% per follicle). Photomicrographs were taken using a Nikon DS-Fi1 digital camera using NIS-elements software.

invariant TCR = details: OCH compared to KRN7000; cited from earlier work

Row | SMILES | potency at down-regulating the TCR relative to OCH [1] | detection of iNKT cells versus OCH treatment (iNKT cells) | detection of iNKT cells versus vehicle (iNKT cells) | microbial load (bacterial counts in blood and multiple organs) [2] | liver histopathology (splenocyte apoptosis) | lymphocytes in the omentum (splenocyte apoptosis) | histopathological scoring of degree of apoptosis in spleen (splenocyte apoptosis) | binding affinity for the invariant TCR (invariant TCR) | apoptotic cells within the spleen (H&E, TUNEL) (splenocyte apoptosis; compared to vehicle- and KRN7000-treated mice)
1 | CCCCCCCCCCCCCCCCCCCCCCCCCC(=O)N[C@@H](CO[C@H]1O[C@H](CO)[C@H](O)[C@H](O)[C@H]1O)[C@H](O)[C@H](O)CCCCCCCCCCCCCC [KRN7000, reference compound] | approximately 10 fold | significantly lower | significantly reduced | similar | did not observe overt differences | significant increase | severe (3 for severe apoptosis (31-45% per follicle)) |  | 
2 | CCCCCCCCCCCCCCCCCCCCCCCC(=O)N[C@@H](COC1OC(CO)C(O)C(O)C1O)[C@H](O)[C@H](O)CCCCC (some centres unmarked) [OCH] |  |  | significantly reduced | did not worsen | did not observe overt differences | fewer | mild (1 for mild presence of apoptosis (0-15% per follicle)) | lower | significant reduction
